Reference: ChEMBL document CHEMBL1201862, “PubChem BioAssay data set” (2004)
Calls of active or inactive are those of the source.

Tests used:
[1] = target: T1, Endoribonuclease toxin MazF (Escherichia coli K-12, UniProt P0AE70); assay: fluorescent RNA oligo signal without MazF, dose response, counter-screen for MazEF activator project, biochemical, fluorescence, single-stranded RNase substrate (AID 588502); type: functional
[2] = target: T1, Endoribonuclease toxin MazF; assay: MazF toxin RNase activators, dose response, biochemical, fluorescence, single-stranded RNA substrate, uHTS hits (AID 588481); type: functional
[3] = Shn3 3'UTR reporter inhibitors, dose response, cell-based, Clone20 osteoblasts, firefly luciferase, cherry-picked (AID 624132); type: functional;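 also: firefly luciferase luminescence from reporter carrying the Shn3 3'UTR in osteoblasts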
CHO = assay: cytotoxicity in TLR9-MyD88 CHO cells, dose response, cytotoxicity control for TLR9-MyD88 binding inhibitor project, cell-based, luminescence (AID 588339); type: functional, hamster; conditions: Cricetulus griseus;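 also: CHO cells stably coexpressing TLR9 and MyD88 fusions from primary screen; compound exposure lasted 48 hours before viability readout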
Fatty acid synthase [4] = target: T2, Fatty acid synthase (Homo sapiens, UniProt P49327); assay: FAS thioesterase domain inhibitors, dose response, biochemical, endpoint fluorescence intensity, uHTS hits (AID 624327); type: functional;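 also: fluorescence from hydrolysis of an O-methyl fluorescein acyl ester substrate by the enzyme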
Fatty acid synthase [5] = target: T2, Fatty acid synthase; assay: FAS thioesterase domain inhibitors, dose response, biochemical, kinetic fluorescence intensity (AID 624326); type: functional;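 also: rate of fluorescence rise from hydrolysis of a fluorogenic O-methyl fluorescein ester substrate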
[6] = control 3'UTR Renilla luciferase suppression, dose response, counter-screen for Shn3 inhibitor project, cell-based, Clone20-Shn3RL, cherry-picked (AID 624133); type: functional
[7] = target: T3, Replicative DNA helicase DnaB (Mycobacterium tuberculosis, UniProt P9WMR3); assay: DnaB intein splicing inhibitors, dose response, biochemical, cell-free fluorescence (AID 449749); type: functional
T3 sequence (P9WMR3 whole entry): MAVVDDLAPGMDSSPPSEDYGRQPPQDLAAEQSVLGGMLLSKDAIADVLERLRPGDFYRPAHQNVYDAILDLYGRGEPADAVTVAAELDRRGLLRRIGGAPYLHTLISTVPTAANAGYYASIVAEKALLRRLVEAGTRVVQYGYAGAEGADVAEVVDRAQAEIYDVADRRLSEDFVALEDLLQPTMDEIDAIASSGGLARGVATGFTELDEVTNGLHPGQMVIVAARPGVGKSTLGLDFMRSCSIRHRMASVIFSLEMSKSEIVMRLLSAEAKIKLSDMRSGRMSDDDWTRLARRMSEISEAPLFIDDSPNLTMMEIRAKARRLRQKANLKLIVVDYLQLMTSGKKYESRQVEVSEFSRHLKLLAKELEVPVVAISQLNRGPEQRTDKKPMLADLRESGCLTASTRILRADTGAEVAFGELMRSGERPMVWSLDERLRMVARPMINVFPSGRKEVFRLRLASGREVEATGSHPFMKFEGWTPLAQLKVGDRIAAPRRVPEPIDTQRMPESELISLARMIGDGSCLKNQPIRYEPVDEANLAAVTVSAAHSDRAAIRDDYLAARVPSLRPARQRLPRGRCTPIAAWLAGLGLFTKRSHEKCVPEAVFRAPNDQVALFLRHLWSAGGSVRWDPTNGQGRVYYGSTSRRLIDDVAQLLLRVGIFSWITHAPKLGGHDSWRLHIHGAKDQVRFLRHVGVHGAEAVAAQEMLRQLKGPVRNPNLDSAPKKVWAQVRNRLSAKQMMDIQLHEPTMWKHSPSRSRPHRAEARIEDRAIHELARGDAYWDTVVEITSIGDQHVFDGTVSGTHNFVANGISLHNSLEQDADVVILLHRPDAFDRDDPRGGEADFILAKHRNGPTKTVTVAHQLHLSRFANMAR

Beta Lactamase = Beta Lactamase (Pseudomonas aeruginosa, UniProt Q932Y6); assay: beta-lactamase reporter inhibitor potency, dose response, artefact control for TLR9-MyD88 binding inhibitor project, BLA reporter cells, FRET fluorescence (AID 588341); type: cell-based;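 also: cell based assay in CHO-K1 cells stably expressing beta-lactamase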
[8] = HepG2 cell cytotoxicity, dose response, cytotoxicity control for Shn3 inhibitor project, CellTiter-Glo, cherry-picked (AID 624134); type: functional, cell-based
Protein RecA = target: T4, Protein RecA (Mycobacterium tuberculosis, UniProt P9WHJ3); assay: Fluorescence Cell-Free Homogeneous Dose Retest to Identify Inhibitors of RecA-Intein Splicing Activity. [Related pubchem assays (depositor defined):AID2097, AID2223, AID489010, AID492950]; type: functional
T4 sequence (P9WHJ3 whole entry): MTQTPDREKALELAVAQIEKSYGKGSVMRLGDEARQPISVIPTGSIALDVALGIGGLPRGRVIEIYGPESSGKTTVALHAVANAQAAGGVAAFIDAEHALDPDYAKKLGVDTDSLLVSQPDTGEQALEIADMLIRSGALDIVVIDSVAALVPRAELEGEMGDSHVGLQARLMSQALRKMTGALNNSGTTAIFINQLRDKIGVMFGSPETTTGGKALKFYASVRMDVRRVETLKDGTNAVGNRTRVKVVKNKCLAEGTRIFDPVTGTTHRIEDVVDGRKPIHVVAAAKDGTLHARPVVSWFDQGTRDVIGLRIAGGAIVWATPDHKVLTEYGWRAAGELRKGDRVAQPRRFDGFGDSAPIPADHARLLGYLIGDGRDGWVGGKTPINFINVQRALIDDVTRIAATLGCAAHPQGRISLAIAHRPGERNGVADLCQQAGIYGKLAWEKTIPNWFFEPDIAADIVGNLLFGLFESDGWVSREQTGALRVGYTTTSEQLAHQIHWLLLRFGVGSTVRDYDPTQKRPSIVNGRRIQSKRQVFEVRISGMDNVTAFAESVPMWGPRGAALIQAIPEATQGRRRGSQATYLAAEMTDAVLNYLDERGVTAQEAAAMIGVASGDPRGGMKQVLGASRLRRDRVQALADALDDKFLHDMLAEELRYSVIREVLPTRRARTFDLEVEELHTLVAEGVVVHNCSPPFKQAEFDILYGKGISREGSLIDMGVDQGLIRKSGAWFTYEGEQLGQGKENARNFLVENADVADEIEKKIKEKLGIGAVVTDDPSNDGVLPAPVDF

T1 sequence (P0AE70 whole entry): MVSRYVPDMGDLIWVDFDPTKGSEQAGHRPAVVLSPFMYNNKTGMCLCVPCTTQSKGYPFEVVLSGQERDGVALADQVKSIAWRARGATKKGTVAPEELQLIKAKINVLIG
T2 sequence (P49327 whole entry, the tested form may be a part): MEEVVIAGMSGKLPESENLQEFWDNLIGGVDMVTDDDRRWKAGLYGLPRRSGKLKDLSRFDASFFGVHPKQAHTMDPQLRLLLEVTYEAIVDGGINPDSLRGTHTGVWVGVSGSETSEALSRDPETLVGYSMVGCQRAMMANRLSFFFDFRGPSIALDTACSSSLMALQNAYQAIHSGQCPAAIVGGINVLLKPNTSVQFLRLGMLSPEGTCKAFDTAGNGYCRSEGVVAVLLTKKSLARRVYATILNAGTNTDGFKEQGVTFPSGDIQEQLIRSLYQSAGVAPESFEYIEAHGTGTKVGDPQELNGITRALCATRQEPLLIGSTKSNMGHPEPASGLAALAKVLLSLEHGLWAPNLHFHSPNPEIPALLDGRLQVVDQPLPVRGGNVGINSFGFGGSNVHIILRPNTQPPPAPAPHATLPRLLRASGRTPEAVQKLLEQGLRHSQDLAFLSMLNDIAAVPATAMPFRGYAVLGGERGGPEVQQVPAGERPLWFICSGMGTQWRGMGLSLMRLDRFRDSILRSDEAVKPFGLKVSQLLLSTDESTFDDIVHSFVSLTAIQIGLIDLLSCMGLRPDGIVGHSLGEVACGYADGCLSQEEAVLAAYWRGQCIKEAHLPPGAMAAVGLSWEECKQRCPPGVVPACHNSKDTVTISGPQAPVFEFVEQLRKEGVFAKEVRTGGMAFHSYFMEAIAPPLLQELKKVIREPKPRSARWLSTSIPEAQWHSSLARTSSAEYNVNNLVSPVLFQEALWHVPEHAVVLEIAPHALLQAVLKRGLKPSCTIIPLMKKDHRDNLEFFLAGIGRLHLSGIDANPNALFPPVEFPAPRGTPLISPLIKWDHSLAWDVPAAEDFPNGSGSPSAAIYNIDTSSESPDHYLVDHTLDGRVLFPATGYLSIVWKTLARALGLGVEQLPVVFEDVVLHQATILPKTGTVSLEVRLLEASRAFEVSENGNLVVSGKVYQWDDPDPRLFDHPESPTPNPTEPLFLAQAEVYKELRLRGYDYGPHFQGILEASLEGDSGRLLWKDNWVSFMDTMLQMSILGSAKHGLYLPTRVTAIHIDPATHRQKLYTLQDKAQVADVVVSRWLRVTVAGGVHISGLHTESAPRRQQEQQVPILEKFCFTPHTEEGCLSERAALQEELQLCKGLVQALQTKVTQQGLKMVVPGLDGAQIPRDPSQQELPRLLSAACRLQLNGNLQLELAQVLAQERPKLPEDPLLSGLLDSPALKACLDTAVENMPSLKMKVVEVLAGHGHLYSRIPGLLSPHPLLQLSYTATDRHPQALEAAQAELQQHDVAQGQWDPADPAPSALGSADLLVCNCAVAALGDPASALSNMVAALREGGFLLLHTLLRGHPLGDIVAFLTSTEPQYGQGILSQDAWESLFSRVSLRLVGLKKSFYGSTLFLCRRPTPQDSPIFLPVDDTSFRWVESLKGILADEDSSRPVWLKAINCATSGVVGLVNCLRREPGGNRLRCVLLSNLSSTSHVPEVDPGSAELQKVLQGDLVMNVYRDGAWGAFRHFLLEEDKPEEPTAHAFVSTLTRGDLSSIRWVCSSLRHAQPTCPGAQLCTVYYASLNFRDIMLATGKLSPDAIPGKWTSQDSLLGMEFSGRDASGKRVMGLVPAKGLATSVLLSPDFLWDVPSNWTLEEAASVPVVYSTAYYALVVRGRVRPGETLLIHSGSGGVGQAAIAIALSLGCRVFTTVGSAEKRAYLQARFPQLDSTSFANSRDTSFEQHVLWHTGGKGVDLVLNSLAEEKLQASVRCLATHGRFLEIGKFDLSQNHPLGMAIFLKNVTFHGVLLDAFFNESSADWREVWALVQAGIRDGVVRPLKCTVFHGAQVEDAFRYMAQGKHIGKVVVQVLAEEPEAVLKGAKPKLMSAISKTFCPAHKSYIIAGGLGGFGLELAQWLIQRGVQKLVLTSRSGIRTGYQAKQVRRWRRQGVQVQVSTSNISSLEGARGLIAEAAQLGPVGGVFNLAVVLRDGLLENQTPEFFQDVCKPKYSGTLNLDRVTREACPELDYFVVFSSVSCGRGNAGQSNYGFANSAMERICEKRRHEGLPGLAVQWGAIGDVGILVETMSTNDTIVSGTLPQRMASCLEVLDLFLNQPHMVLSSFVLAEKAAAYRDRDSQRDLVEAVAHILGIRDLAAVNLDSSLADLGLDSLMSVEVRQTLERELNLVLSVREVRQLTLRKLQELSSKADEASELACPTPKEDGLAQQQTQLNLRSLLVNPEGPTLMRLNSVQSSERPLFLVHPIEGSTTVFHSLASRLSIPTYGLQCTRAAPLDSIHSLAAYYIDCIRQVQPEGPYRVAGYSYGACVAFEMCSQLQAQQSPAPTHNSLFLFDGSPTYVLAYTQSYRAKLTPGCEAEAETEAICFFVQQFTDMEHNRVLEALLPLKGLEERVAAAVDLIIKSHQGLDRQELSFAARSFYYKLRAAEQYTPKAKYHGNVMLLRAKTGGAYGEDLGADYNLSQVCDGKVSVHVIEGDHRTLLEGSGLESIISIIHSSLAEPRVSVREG
Chain of Beta Lactamase (Q932Y6 whole entry): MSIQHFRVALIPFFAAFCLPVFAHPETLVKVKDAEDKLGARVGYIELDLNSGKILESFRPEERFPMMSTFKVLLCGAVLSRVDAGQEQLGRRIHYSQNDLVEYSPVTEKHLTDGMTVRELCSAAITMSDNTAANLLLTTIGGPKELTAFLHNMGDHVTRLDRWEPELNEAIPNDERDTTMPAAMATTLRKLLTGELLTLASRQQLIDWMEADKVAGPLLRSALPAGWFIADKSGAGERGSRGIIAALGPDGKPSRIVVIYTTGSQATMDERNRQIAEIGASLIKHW

SMILES: Cc1cc(C)c(NC(=O)Cn2nnc(C(=O)NCc3ccc4c(c3)OCO4)c2N)c(C)c1
- EC50 [1]: > 99 µM (inactive)
- EC50 [2]: > 99 µM (inactive)

SMILES: CCCC(=O)OCCNc1cc(Sc2nc3ccccc3[nH]2)c2nonc2c1[N+](=O)[O-]
- AC50 [3]: 6.63 µM (active)
- IC50 (CHO): 4.59 µM (active)
- IC50 (Fatty acid synthase [4]): 2.2 µM (active)
- IC50 (Fatty acid synthase [5]): 1.34 µM (active)
- AC50 [6]: 8.96 µM (active)
- AC50 [7]: 0.855 µM (active)
- IC50 (Beta Lactamase): 10.9 µM (inactive)
- AC50 [8]: 24.2 µM (active)
- EC50 (Protein RecA): 0.657 µM (active)
